Reference: article PMC13186263 (The Journal of organic chemistry, 2020)

What was measured:
PKCε = target: T1, PKCε (Homo sapiens, UniProt Q02156); assay: PKC binding assay, competition with 3H-PDBu
T1 sequence (Q02156 1-737): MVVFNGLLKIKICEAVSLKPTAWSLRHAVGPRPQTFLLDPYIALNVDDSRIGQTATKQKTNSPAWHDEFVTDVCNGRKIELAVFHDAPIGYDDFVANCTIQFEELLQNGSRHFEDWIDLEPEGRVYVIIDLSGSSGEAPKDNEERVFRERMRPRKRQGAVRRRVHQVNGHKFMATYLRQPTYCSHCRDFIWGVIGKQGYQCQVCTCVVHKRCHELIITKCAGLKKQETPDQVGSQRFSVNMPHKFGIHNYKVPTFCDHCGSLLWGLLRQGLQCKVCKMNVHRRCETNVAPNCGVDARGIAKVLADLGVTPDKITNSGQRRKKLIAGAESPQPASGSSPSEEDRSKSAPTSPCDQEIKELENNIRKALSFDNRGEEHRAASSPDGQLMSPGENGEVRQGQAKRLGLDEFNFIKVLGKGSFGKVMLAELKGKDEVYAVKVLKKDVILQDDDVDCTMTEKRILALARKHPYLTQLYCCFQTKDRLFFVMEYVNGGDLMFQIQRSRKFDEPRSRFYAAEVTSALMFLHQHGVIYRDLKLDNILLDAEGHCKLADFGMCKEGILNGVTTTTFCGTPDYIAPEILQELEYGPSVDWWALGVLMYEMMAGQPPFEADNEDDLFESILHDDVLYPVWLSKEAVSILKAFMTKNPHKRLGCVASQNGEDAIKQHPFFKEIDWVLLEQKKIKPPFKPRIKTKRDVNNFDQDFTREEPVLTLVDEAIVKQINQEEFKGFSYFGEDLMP

PKCθ = PKCθ (Homo sapiens, UniProt Q04759); assay: PKC binding assay, competition with 3H-PDBu
Sequence of PKCθ (Q04759 whole entry, canonical isoform): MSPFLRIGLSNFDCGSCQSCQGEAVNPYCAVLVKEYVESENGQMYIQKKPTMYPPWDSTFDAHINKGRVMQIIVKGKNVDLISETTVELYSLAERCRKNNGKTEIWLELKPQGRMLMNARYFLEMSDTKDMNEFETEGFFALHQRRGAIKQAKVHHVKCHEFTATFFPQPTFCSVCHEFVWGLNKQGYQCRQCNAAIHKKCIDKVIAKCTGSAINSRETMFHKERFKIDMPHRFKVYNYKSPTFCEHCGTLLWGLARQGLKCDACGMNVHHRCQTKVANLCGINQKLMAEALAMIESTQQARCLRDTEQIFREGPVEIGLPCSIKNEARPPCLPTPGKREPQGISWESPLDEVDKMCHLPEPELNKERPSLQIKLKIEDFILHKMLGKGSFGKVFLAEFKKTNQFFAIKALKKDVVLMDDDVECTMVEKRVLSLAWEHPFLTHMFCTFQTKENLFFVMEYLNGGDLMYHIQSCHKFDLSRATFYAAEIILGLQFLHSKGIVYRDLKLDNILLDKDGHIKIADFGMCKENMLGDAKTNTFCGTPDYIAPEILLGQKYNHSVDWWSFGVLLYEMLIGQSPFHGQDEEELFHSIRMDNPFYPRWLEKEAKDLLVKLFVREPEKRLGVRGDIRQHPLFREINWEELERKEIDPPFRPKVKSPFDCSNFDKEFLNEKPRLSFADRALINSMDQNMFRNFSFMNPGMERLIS

PKC isoforms = assay: Cell-free competitive PKC binding, statements across isoforms; design: species or system human; conditions: five PKC isoforms
PKCα = PKCα (Homo sapiens, UniProt P17252); assay: biochemical; type: binding
PKCβI = PKCβI (Homo sapiens, UniProt P05771); assay: PKC binding assay, competition with 3H-PDBu
Sequence of PKCβI (P05771 whole entry): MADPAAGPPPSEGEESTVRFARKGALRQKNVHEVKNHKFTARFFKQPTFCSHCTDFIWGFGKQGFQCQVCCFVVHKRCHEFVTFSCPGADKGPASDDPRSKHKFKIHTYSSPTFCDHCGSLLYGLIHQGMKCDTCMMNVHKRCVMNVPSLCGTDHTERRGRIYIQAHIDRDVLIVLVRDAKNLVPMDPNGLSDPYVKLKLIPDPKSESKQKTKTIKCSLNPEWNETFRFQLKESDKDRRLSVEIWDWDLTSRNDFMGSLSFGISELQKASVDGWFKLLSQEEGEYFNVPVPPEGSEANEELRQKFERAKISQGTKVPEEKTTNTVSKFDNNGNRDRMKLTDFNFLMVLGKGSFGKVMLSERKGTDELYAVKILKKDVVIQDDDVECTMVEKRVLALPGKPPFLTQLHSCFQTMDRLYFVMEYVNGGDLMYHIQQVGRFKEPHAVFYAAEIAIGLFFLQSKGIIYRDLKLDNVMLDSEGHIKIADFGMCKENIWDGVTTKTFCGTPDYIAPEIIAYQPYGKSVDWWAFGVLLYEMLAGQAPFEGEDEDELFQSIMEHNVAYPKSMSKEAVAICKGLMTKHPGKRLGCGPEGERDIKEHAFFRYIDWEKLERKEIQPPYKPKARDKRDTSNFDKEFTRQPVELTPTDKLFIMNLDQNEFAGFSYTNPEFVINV

PKCδ = PKCδ (Homo sapiens, UniProt Q05655); assay: PKC binding assay, competition with 3H-PDBu
Sequence of PKCδ (Q05655 whole entry): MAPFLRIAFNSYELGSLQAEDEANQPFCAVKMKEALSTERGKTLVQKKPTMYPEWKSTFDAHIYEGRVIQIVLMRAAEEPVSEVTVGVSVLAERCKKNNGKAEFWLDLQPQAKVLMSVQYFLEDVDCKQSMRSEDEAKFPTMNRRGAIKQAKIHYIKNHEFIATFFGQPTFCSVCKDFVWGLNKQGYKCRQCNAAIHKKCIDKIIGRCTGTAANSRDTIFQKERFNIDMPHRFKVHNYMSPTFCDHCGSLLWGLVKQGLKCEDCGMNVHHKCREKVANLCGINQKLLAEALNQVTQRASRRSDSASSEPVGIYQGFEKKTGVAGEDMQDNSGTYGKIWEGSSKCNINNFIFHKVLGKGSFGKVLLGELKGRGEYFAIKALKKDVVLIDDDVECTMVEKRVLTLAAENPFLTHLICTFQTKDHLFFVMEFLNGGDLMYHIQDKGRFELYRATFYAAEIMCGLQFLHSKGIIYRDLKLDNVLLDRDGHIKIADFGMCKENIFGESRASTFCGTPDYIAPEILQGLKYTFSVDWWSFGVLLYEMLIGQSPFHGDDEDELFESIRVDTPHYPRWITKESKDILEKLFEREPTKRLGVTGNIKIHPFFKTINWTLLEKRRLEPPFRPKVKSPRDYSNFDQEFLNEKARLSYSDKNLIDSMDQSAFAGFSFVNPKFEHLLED

CCC/C=C/C=C/C(=O)O[C@H]1/C(=C/C(=O)OC)C[C@H]2C[C@H]([C@@H](C)O)OC(=O)C[C@H](O)C[C@@H]3C[C@H](OC(C)=O)C(C)(C)[C@](O)(C[C@@H]4C/C(=C/C(=O)OC)C[C@H](/C=C/C(C)(C)[C@]1(O)O2)O4)O3 [bryostatin 1, Bryostatin 1, reference compound]
Ki (PKCε): 3 nM
Ki (PKCθ): 1.5 nM

CCCCCCCC(=O)O[C@H]1/C(=C/C(=O)OC)C[C@H]2C[C@H]([C@@H](C)O)OC(=O)CCCC(=O)OCC(C)(C)[C@]1(O)O2 [7b, (1S,3R,13S,14S,E)-13-Hydroxy-3-((R)-1-hydroxyethyl)-15-(2-methoxy-2-oxoethylidene)-12,12-dimethyl-5,9-dioxo-4,10,17-trioxabicyclo[11.3.1]heptadecan-14-yl Octanoate]
PKC binding affinities (PKC isoforms): strongly attenuated binding affinity relative to the des-methyl compound 7a

CCCCCCCC(=O)O[C@H]1/C(=C/C(=O)OC)C[C@H]2C[C@H](CO)OC(=O)CCCC(=O)OCC(C)(C)[C@]1(O)O2 [7a, (1S,3R,13S,14S,E)-13-Hydroxy-3-(hydroxymethyl)-15-(2-methoxy-2-oxoethylidene)-12,12-dimethyl-5,9-dioxo-4,10,17-trioxabicyclo[11.3.1]heptadecan-14-yl Octanoate]
Ki (PKCα): 4.4 nM
Ki (PKCβI): 4 nM
Ki (PKCδ): 1.7 nM
Ki (PKCε): 2.7 nM
Ki (PKCθ): 1.5 nM
PKC binding affinities (PKC isoforms): comparable to bryostatin
